Where two headings read alike, the source gives them in different places.
Key:
[1] = system: human SKM-1 acute myeloid leukemia cells; assay: SKM-1 antiproliferation cell-based assay (ATPlite); conditions: Homo sapiens
In short: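 Log-phase cells in RPMI 1640/15% FBS were seeded at 34722 cells/mL and exposed for 4 days to nine-concentration DMSO serial dilutions in triplicate. Viability was read as ATP luminescence (ATPlite 1step), and IC50 values came from variable-slope non-linear regression.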

[2] = target: T1, human BRD4 bromodomain II (Homo sapiens, UniProt O60885); assay: Bromodomain binding assay (AlphaScreen), BRD4 BDII
T1 construct: human BRD4 bromodomain II [based on Genbank NM_058243, residues 349-460]; host or cells: E. coli
In short: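 Inhibition of acetyl-H4 peptide binding to human BRD4 bromodomains is measured by bead-based proximity (AlphaScreen) in pH 7.5 HEPES buffer containing 0.05% CHAPS and 0.1% BSA. Ten compound concentrations in 3-fold steps give competitive binding IC50s.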

[3] = SKM-1, 96 h, SKM-1 antiproliferation assay, 4 days, Table C2
[4] = AlphaScreen assay, Table C2, read-out: BRD4 BDII IC50
[5] = SKM-1, SKM-1 antiproliferation assay
[6] = BRD4 BDII AlphaScreen assay, read-out: BRD4 BD2 IC50

SMILES	GI50 [1, 3]	IC50 [2, 4]	GI50 [1, 5]	IC50 [2, 6]
CC(=O)NCCNc1ncc(-c2cc(F)cc(-c3ccc(N4CCN(C)C4=O)c(Cl)c3)c2O)cc1N1CCNCC1 [Example 395, N-(2-((5-(3′-chloro-5-fluoro-2-hydroxy-4′-(3-methyl-2-oxoimidazolidin-1-yl)-[1,1′-biphenyl]-3-yl)-3-(piperazin-1-yl)pyridin-2-yl)amino)ethyl)acetamide]	30 to 300 nM	1 to 10 nM	–	–
CC(C)N1CCCC12CCN(c1cc(-c3cc(F)cc(-c4ccc(-n5ccn(C)c5=O)c(Cl)c4)c3O)ccn1)C2 (stereo not drawn) [Example 751, 1-(3-chloro-5′-fluoro-2′-hydroxy-3′-(2-(1-isopropyl-1,7-diazaspiro[4.4]nonan-7-yl)pyridin-4-yl)-[1,1′-biphenyl]-4-yl)-3-methyl-1H-imidazol-2(3H)-one]	0.3 to 30 nM	1 to 10 nM	–	–
Cn1ccn(-c2ccc(-c3cc(F)cc(-c4ccnc(N5CCNCCC5=O)c4)c3O)cc2Cl)c1=O [Example 665, 4-(4-(3′-chloro-5-fluoro-2-hydroxy-4′-(3-methyl-2-oxo-2,3-dihydro-1H-imidazol-1-yl)-[1,1′-biphenyl]-3-yl)pyridin-2-yl)-1,4-diazepan-5-one]	30 to 300 nM	0.01 to 1 nM	–	–
O=C1CCCN1c1ccc(-c2cc(Cl)cc(-c3ccnc(N4CCNCC4)c3)c2O)cc1Cl [Example 274, 1-(3,5′-dichloro-2′-hydroxy-3′-(2-(piperazin-1-yl)pyridin-4-yl)-[1,1′-biphenyl]-4-yl)pyrrolidin-2-one]	30 to 300 nM	1 to 10 nM	–	–
CSc1ncc(-c2cc(F)cc(-c3ccc(-n4ccn(C)c4=O)c(Cl)c3)c2O)cc1N1CCN(C(C)(C)C)CC1 [Example 821, 1-(3′-(5-(4-(tert-butyl)piperazin-1-yl)-6-(methylthio)pyridin-3-yl)-3-chloro-5′-fluoro-2′-hydroxy-[1,1′-biphenyl]-4-yl)-3-methyl-1H-imidazol-2(3H)-one]	0.3 to 30 nM	1 to 10 nM	–	–
Cc1cc(-c2ccc(-n3ccn(C)c3=O)c(Cl)c2)c(O)c(-c2cc(F)c(F)c(N3CCN(C(C)(C)C)CC3)c2)n1 [Example 1026, 1-(4-(2-(3-(4-(tert-butyl)piperazin-1-yl)-4,5-difluorophenyl)-3-hydroxy-6-methylpyridin-4-yl)-2-chlorophenyl)-3-methyl-1H-imidazol-2(3H)-one]	–	–	0.3 to 30 nM	0.01 to 1 nM
Cn1ccn(-c2ccc(-c3cc(F)cc(-c4cc(N5CCN(C(C)(C)C)CC5)ccn4)c3O)cc2Cl)c1=O [Example 953, 1-(3′-(4-(4-(tert-butyl)piperazin-1-yl)pyridin-2-yl)-3-chloro-5′-fluoro-2′-hydroxy-[1,1′-biphenyl]-4-yl)-3-methyl-1H-imidazol-2(3H)-one]	–	–	300 to 3000 nM	> 100 nM
CC(=O)Nc1ccc(-c2cccc(-c3ccnc(N4CCC(CO)C4)c3)c2O)cc1F (stereo not drawn) [Example 230, N-(3-fluoro-2′-hydroxy-3′-(2-(3-(hydroxymethyl)pyrrolidin-1-yl)pyridin-4-yl)-[1,1′-biphenyl]-4-yl)acetamide]	300 to 3000 nM	1 to 10 nM	–	–
CN1CCN(c2ccc(-c3cccc(-c4cc(C5CC5)nc(N5CCNCC5)c4)c3O)cc2Cl)C1=O [Example 368, 1-(3-chloro-3′-(2-cyclopropyl-6-(piperazin-1-yl)pyridin-4-yl)-2′-hydroxy-[1,1′-biphenyl]-4-yl)-3-methylimidazolidin-2-one]	30 to 300 nM	1 to 10 nM	–	–
Cn1ccn(-c2ccc(-c3cc(F)cc(-c4ccnc(N5CCN[C@H](C(C)(C)O)C5)c4)c3O)cc2Cl)c1=O [Example 639, (S)-1-(3-chloro-5′-fluoro-2′-hydroxy-3′-(2-(3-(2-hydroxypropan-2-yl)piperazin-1-yl)pyridin-4-yl)-[1,1′-biphenyl]-4-yl)-3-methyl-1H-imidazol-2(3H)-one]	0.3 to 30 nM	0.01 to 1 nM	–	–
Cn1ccn(-c2ccc(-c3cc(F)cc(-c4cncc(N5CC[C@@](C)(O)C5)c4)c3O)cc2Cl)c1=O [Example 728, (R)-1-(3-chloro-5′-fluoro-2′-hydroxy-3′-(5-(3-hydroxy-3-methylpyrrolidin-1-yl)pyridin-3-yl)-[1,1′-biphenyl]-4-yl)-3-methyl-1H-imidazol-2(3H)-one]	0.3 to 30 nM	1 to 10 nM	–	–
Cc1ccc(-c2cc(F)cc(-c3ccc(-n4ccn(C)c4=O)c(Cl)c3)c2O)cc1N1CC(C)(O)C2(CC2)C1 (stereo not drawn) [Example 854, 1-(3-Chloro-5′-fluoro-2′-hydroxy-338-(7-hydroxy-7-methyl-5-azaspiro[2.4]heptan-5-yl)-4″-methyl-[1,1′:3′,1″-terphenyl]-4-yl)-3-methyl-1H-imidazol-2(3H)-one]	–	–	30 to 300 nM	1 to 10 nM
Cc1cc(-c2cc(-c3cn[nH]c3)nc(N3CCNCC3)c2)c(O)c(-c2ccc(-n3ccn(C)c3=O)c(Cl)c2)c1 [Example 566]	0.3 to 30 nM	0.01 to 1 nM	–	–
CN1CCN(c2cc(-c3cc(F)cc(-c4ccc(-n5ccn(C)c5=O)c(Cl)c4)c3O)cc3[nH]ncc23)CC1 [Example 588, 1-(3-chloro-5′-fluoro-2′-hydroxy-3′-(4-(4-methylpiperazin-1-yl)-1H-indazol-6-yl)-[1,1′-biphenyl]-4-yl)-3-methyl-1H-imidazol-2(3H)-one]	0.3 to 30 nM	0.01 to 1 nM	–	–
Cn1ccn(-c2ccc(-c3cc(F)cc(-c4ccc(=O)n(C5CCNCC5)c4)c3O)cc2Cl)c1=O [Example 486, 5-(3′-chloro-5-fluoro-2-hydroxy-4′-(3-methyl-2-oxo-2,3-dihydro-1H-imidazol-1-yl)-[1,1′-biphenyl]-3-yl)-1-(piperidin-4-yl)pyridin-2(1H)-one]	30 to 300 nM	1 to 10 nM	–	–
CN1CCN(c2ccc(-c3cc(F)cc(-c4ccnc(N5CCNc6ccccc65)c4)c3O)cc2Cl)C1=O [Example 483, 1-(3-chloro-3′-(2-(3,4-dihydroquinoxalin-1(2H)-yl)pyridin-4-yl)-5′-fluoro-2′-hydroxy-[1,1′-biphenyl]-4-yl)-3-methylimidazolidin-2-one]	≥ 3000 nM	> 100 nM	–	–
Cn1ccn(-c2ccc(-c3cc(F)cc(-c4cncc(N5CCNC(C)(C)C5)c4)c3O)cc2Cl)c1=O [Example 561, 1-(3-chloro-3′-(5-(3,3-dimethylpiperazin-1-yl)pyridin-3-yl)-5′-fluoro-2′-hydroxy-[1,1′-biphenyl]-4-yl)-3-methyl-1H-imidazol-2(3H)-one]	0.3 to 30 nM	0.01 to 1 nM	–	–
Cn1ccn(-c2ccc(-c3cc(F)cc(-c4cccc(-c5cccc(O)c5)c4)c3O)cc2Cl)c1=O [Example 864]	–	–	300 to 3000 nM	10 to 100 nM
O=c1sccn1-c1ccc(-c2cc(F)cc(-c3ccnc(N4CCNCC4)c3)c2O)cc1Cl [Example 473, 3-(3-chloro-5′-fluoro-2′-hydroxy-3′-(2-(piperazin-1-yl)pyridin-4-yl)-[1,1′-biphenyl]-4-yl)thiazol-2(3H)-one]	0.3 to 30 nM	1 to 10 nM	–	–
CC(C)N1CCC12CCN(c1cc(-c3cc(F)cc(-c4ccc(-n5ccn(C)c5=O)c(Cl)c4)c3O)ccn1)C2 (stereo not drawn) [Example 748, 1-(3-chloro-5′-fluoro-2′-hydroxy-3′-(2-(1-isopropyl-1,6-diazaspiro[3.4]octan-6-yl)pyridin-4-yl)-[1,1′-biphenyl]-4-yl)-3-methyl-1H-imidazol-2(3H)-one]	0.3 to 30 nM	0.01 to 1 nM	–	–
CC(=O)Nc1cc(-c2cc(F)cc(-c3ccc(-n4ccn(C)c4=O)c(Cl)c3)c2O)cc(N2CC[C@H](N)C2)n1 [Example 503, (S)-N-(6-(3-aminopyrrolidin-1-yl)-4-(3′-chloro-5-fluoro-2-hydroxy-4′-(3-methyl-2-oxo-2,3-dihydro-1H-imidazol-1-yl)-[1,1′-biphenyl]-3-yl)pyridin-2-yl)acetamide]	0.3 to 30 nM	1 to 10 nM	–	–
Cc1cc(-c2ccnc(N3CC[C@H](N)C3)c2)c(O)c(-c2ccc(-n3ccn(C)c3=O)c(Cl)c2)c1 [Example 498, (S)-1-(3′-(2-(3-aminopyrrolidin-1-yl)pyridin-4-yl)-3-chloro-2′-hydroxy-5′-methyl-[1,1′-biphenyl]-4-yl)-3-methyl-1H-imidazol-2(3H)-one]	0.3 to 30 nM	0.01 to 1 nM	–	–
CN1CCN(c2ccc(-c3cc(C(F)(F)F)cc(-c4ccnc(N5CCNCC5)c4)c3O)cc2Cl)C1=O [Example 332, 1-(3-chloro-2′-hydroxy-3′-(2-(piperazin-1-yl)pyridin-4-yl)-5′-(trifluoromethyl)-[1,1′-biphenyl]-4-yl)-3-methylimidazolidin-2-one]	≥ 3000 nM	10 to 100 nM	–	–
CN1CCN(c2ccc(-c3cccc(-c4cc(N5CCNCC5)c(=O)n(C)c4)c3O)cc2Cl)C1=O [Example 342, 5-(3′-chloro-2-hydroxy-4′-(3-methyl-2-oxoimidazolidin-1-yl)-[1,1′-biphenyl]-3-yl)-1-methyl-3-(piperazin-1-yl)pyridin-2(1H)-one]	30 to 300 nM	1 to 10 nM	–	–
CC(=O)Nc1ccc(-c2cccc(-c3cc(Cl)cc(N4CCNCC4)c3)c2O)cc1F [Example 214, N-(3″-chloro-3-fluoro-2′-hydroxy-5″-(piperazin-1-yl)-[1,1′:3′,1″-terphenyl]-4-yl)acetamide]	300 to 3000 nM	1 to 10 nM	–	–
CN1CCN(c2ccc(-c3cc(F)cc(-c4ccc(CO)c(N5CCNCC5)c4)c3O)cc2Cl)C1=O [Example 358, 1-(3-chloro-5′-fluoro-2′-hydroxy-4″-(hydroxymethyl)-3″-(piperazin-1-yl)-[1,1′:3′,1″-terphenyl]-4-yl)-3-methylimidazolidin-2-one]	30 to 300 nM	1 to 10 nM	–	–
Cn1ccn(-c2ccc(-c3cc(F)cc(-c4cc(N5CC6CCC(C5)N6)c5cn[nH]c5c4)c3O)cc2Cl)c1=O [Example 573]	0.3 to 30 nM	0.01 to 1 nM	–	–

Source: US20250179059A1 (The Regents of the University of California, priority 2021, published 2025)
